Measured values from PubChem BioAssay AID1259407 (Chemical Carcinogenesis Research Information System (CCRIS), 2018).
The source made the active and inactive calls. How the calls were made is not given here.

System: CCRIS mutagenicity, Ames/micronucleus/aberration tests
Experiment: CCRIS mutagenicity studies
[1] = Test System: AMES SALMONELLA TYPHIMURIUM, Strain/Indicator: TA100, Metabolic Activation: NONE, Method: STANDARD PLATE

CCCN(CCC)N=O was tested, and the mutagenic call (Test System: AMES SALMONELLA TYPHIMURIUM, Strain/Indicator: TA100, Metabolic Activation: HAMSTER, LIVER, S-9, Method: PREINCUBATION) was “active; positive”, the mutagenic call (Test System: AMES SALMONELLA TYPHIMURIUM, Strain/Indicator: TA100, Metabolic Activation: HUMAN, LIVER, S-9, Method: PREINCUBATION) was “inactive; negative” and the mutagenic call (Test System: AMES SALMONELLA TYPHIMURIUM, Strain/Indicator: TA100, Metabolic Activation: MOUSE, INTACT UROTHELIAL CELLS, Method: FLUCTUATION TEST) was “active; positive”. For the same compound, the mutagenic call [1] was “inactive; negative”, the mutagenic call (Test System: AMES SALMONELLA TYPHIMURIUM, Strain/Indicator: TA100, Metabolic Activation: PIG, LIVER, S-9, Method: PREINCUBATION) was “inactive; negative” and the mutagenic call (Test System: AMES SALMONELLA TYPHIMURIUM, Strain/Indicator: TA100, Metabolic Activation: RABBIT, LIVER, S-9, Method: STANDARD PLATE) was “inactive; negative”. For the same compound, the mutagenic call (Test System: AMES SALMONELLA TYPHIMURIUM, Strain/Indicator: TA100, Metabolic Activation: RABBIT, LUNG, S-9, Method: STANDARD PLATE) was “inactive; negative”, the mutagenic call (Test System: AMES SALMONELLA TYPHIMURIUM, Strain/Indicator: TA100, Metabolic Activation: RABBIT, NASAL, S-9, Method: STANDARD PLATE) was “inactive; negative” and the mutagenic call (Test System: AMES SALMONELLA TYPHIMURIUM, Strain/Indicator: TA100, Metabolic Activation: RAT, INTACT UROTHELIAL CELLS, Method: FLUCTUATION TEST) was “active; positive”. The mutagenic call (Test System: AMES SALMONELLA TYPHIMURIUM, Strain/Indicator: TA100, Metabolic Activation: RAT, LIVER, S-9, AROCLOR 1254, Method: PREINCUBATION) was “active; positive”, the mutagenic call (Test System: AMES SALMONELLA TYPHIMURIUM, Strain/Indicator: TA100, Metabolic Activation: RAT, LIVER, S-9, KC500 OR PHENOBARBITAL, Method: LIQUID SUSPENSION) was “active; positive” and the mutagenic call (Test System: AMES SALMONELLA TYPHIMURIUM, Strain/Indicator: TA100, Metabolic Activation: RAT, LIVER, S-9, Method: PREINCUBATION) was “inactive; negative”. The mutagenic call (Test System: AMES SALMONELLA TYPHIMURIUM, Strain/Indicator: TA100, Metabolic Activation: RAT, LIVER, S-9, Method: STANDARD PLATE) was “inactive; negative”, the mutagenic call (Test System: AMES SALMONELLA TYPHIMURIUM, Strain/Indicator: TA100, Metabolic Activation: RAT, LUNG, S-9, Method: STANDARD PLATE) was “inactive; negative” and the mutagenic call (Test System: AMES SALMONELLA TYPHIMURIUM, Strain/Indicator: TA100, Metabolic Activation: RAT, NASAL, S-9, Method: STANDARD PLATE) was “active; positive”. The mutagenic call (Test System: AMES SALMONELLA TYPHIMURIUM, Strain/Indicator: TA102, Metabolic Activation: RAT, LIVER, S-9, AROCLOR 1254, Method: PREINCUBATION) was “active; positive”, the mutagenic call (Test System: AMES SALMONELLA TYPHIMURIUM, Strain/Indicator: TA104, Metabolic Activation: RAT, LIVER, S-9, AROCLOR 1254, Method: PREINCUBATION) was “active; positive” and the mutagenic call (Test System: AMES SALMONELLA TYPHIMURIUM, Strain/Indicator: TA1530, Metabolic Activation: RAT, LIVER, S-9, Method: STANDARD PLATE) was “active; positive”. For the same compound, the mutagenic call (Test System: AMES SALMONELLA TYPHIMURIUM, Strain/Indicator: TA1535, Metabolic Activation: RAT, LIVER, S-9, AROCLOR 1254, Method: PREINCUBATION) was “active; positive”, the mutagenic call (Test System: AMES SALMONELLA TYPHIMURIUM, Strain/Indicator: TA1535ER, Metabolic Activation: NONE, Method: STANDARD PLATE) was “inactive; negative” and the mutagenic call (Test System: AMES SALMONELLA TYPHIMURIUM, Strain/Indicator: TA1975, Metabolic Activation: RAT, LIVER, S-9, AROCLOR 1254, Method: PREINCUBATION) was “active; positive”. For the same compound, the mutagenic call (Test System: AMES SALMONELLA TYPHIMURIUM, Strain/Indicator: YG7104ER, Metabolic Activation: NONE, Method: STANDARD PLATE) was “active; positive”, the mutagenic call (Test System: AMES SALMONELLA TYPHIMURIUM, Strain/Indicator: YG7108ER, Metabolic Activation: NONE, Method: STANDARD PLATE) was “active; positive” and the mutagenic call (Test System: CHINESE HAMSTER V-79, Strain/Indicator: V-79/8-AZAGUANINE, Metabolic Activation: RAT, LIVER, S-15, PHENOBARBITAL, Method: STANDARD PLATE) was “active; positive”. The mutagenic call (Test System: CHINESE HAMSTER V-79, Strain/Indicator: V-79/OUABAIN, Metabolic Activation: HAMSTER, HEPATOCYTES, Method: CELL-MEDIATED) was “active; positive”.

For O=C(O)CCCC[C@@H]1SC[C@@H]2NC(=O)N[C@@H]21, the mutagenic call (Test System: AMES SALMONELLA TYPHIMURIUM, Strain/Indicator: TA98, Metabolic Activation: NONE, Method: STANDARD PLATE) was “inactive; negative”, the mutagenic call (Test System: AMES SALMONELLA TYPHIMURIUM, Strain/Indicator: TA98, Metabolic Activation: RAT, LIVER, S-9, AROCLOR 1254, Method: STANDARD PLATE) was “inactive; negative” and the mutagenic call [1] was “inactive; negative”. For the same compound, the mutagenic call (Test System: AMES SALMONELLA TYPHIMURIUM, Strain/Indicator: TA100, Metabolic Activation: RAT, LIVER, S-9, AROCLOR 1254, Method: STANDARD PLATE) was “inactive; negative”, the mutagenic call (Test System: AMES SALMONELLA TYPHIMURIUM, Strain/Indicator: TA1535, Metabolic Activation: NONE, Method: STANDARD PLATE) was “inactive; negative” and the mutagenic call (Test System: AMES SALMONELLA TYPHIMURIUM, Strain/Indicator: TA1535, Metabolic Activation: RAT, LIVER, S-9, AROCLOR 1254, Method: STANDARD PLATE) was “inactive; negative”. The mutagenic call (Test System: AMES SALMONELLA TYPHIMURIUM, Strain/Indicator: TA1537, Metabolic Activation: NONE, Method: STANDARD PLATE) was “inactive; negative”, the mutagenic call (Test System: AMES SALMONELLA TYPHIMURIUM, Strain/Indicator: TA1537, Metabolic Activation: RAT, LIVER, S-9, AROCLOR 1254, Method: STANDARD PLATE) was “inactive; negative” and the mutagenic call (Test System: AMES SALMONELLA TYPHIMURIUM, Strain/Indicator: TA1538, Metabolic Activation: NONE, Method: STANDARD PLATE) was “inactive; negative”. For the same compound, the mutagenic call (Test System: AMES SALMONELLA TYPHIMURIUM, Strain/Indicator: TA1538, Metabolic Activation: RAT, LIVER, S-9, AROCLOR 1254, Method: STANDARD PLATE) was “inactive; negative”, the mutagenic call (Test System: E. COLI, Strain/Indicator: WP2, Metabolic Activation: NONE, Method: STANDARD PLATE) was “inactive; negative” and the mutagenic call (Test System: E. COLI, Strain/Indicator: WP2, Metabolic Activation: RAT, LIVER, S-9, AROCLOR 1254, Method: STANDARD PLATE) was “inactive; negative”.

OC/C=C/C=C/CO was tested, and the mutagenic call (Test System: CHINESE HAMSTER V-79, Strain/Indicator: V-79 (HGPRT)/8-AZAGUANINE, Metabolic Activation: NONE) was “inactive; negative”.
